Assay: Half-life time of the compound
Format: ADME

T1/2: 1.13 h
Substance: GaIII-DOTATOC
